Where “and” joins values, the source holds several entries; their conditions need not be identical. Identical values can stand only once.
System: mouse insulinoma cells (MIN6)
Experiment: Increase in fluorescence intensity (uptake) after administration of fluorescent glucose derivative to MIN6 cells, influence of cytochalasin B (CB) or phloretin (PHT), fluorescence microplate reader
Assay type: cell-based
Details: CDG 100 μM, 37° C. 5 minutes; CB 10 μM; MIN6 culture day 13; average, two independent experiments
Protocol: Increase in fluorescence intensity caused by the administration of CDG, and the influence of a glucose transporter (GLUT) inhibitor CB thereon were confirmed by targeting MIN6 cells.
A 96-well clear-bottom plate having wells of 8 rows (A to H) and 12 columns (1 to 12) (μClear-PLATE, Greiner Bio-One, BLACK) was used in measurement. A culture solution containing MIN6 cells suspended at a density of 60×10^4 cells/mL was added dropwise at 10 μL/well to the central portion of the well, and then, the plate was left standing for 40 minutes in an incubator for fixation. The cells were cultured by the addition of a culture solution at 200 μL/well (6000 cells/well). For layout, the cells were seeded to wells B to H on the third column and wells A to G on the fifth column. Medium replacement was performed by replacing half the amount with a fresh one once every two days at 0 to 4 DIV (days in vitro) and every day at 5 DIV or later. […]
CDG and 2-NBDG were each independently administered to the wells on the third and fifth columns using an 8-channel pipette such that these derivatives were alternately placed on the same plate. Before the administration, the autofluorescence of each well was measured in advance using a fluorescence microplate reader (Flex Station, Molecular Devices, LLC). […] The measurement was conducted at Bottom Read, Averaging 3, and Photomultiplier sensitivity high. […]

## O=c1ccc2ccc(NC3C(O)OC(CO)[C@@H](O)[C@@H]3O)cc2o1 (stereo partly drawn) [CDG, 2-deoxy-2-(2-oxo-2H-chromen-7-yl)amino-D-glucose]
  fluorescence intensity in the presence of CB relative to the absence of CB: 47.3% and 42.9%

— US10509041B2, “Glucose derivative, and cell imaging method and imaging agent using said derivative” (HIROSAKI UNIVERSITY, priority 2014, dated 2019)
